US8501440B2 (Case Western Reserve University, priority 2006, dated 2013)
“Also recorded” adds a separate entry of the source.

Legend:
[1] = tested on: human breast cancer cell line MCF-7; test: Mitogenicity in cell culture (cell growth, DNA content); assay type: cell-based; details: MCF-7, 3-days exposure, cell number and DNA content
Procedure: Growth media were supplemented with 10% fetal bovine serum (FBS) (Invitrogen Life Technologies, Inc., Carlsbad, AA), penicillin (100 U/ml) and streptomycin (100 ug/mL). Approximately 1.0×10^5 cells were seeded into 35-mm dishes and cultured until subconfluent. Two assays were employed: (i) Cell-growth curves were determined by hemocytometry. Approximately 5×10^4 were seeded into a 24-well plate and cultured for 24 h. After 24 hour, the medium was removed and replaced with fresh medium containing 0.1% BSA. […] Cell numbers were determined after 3-days exposure to the hormones. (ii) Cell DNA content was determined using a DNA measurement kit (Invitrogen) following 3-days exposure to the hormones in cell culture as above.

diabetic Lewis rats = test: Blood glucose lowering in streptozotocin-diabetic rats; assay type: in vivo, rat; details: streptozotocin-diabetic male Lewis rats, 1.5 U/kg subcutaneously, 0-90 min
Procedure: Male Lewis rats (˜250 g body weight) were rendered diabetic with streptozotocin. […] Rats were injected subcutaneously at time=0 with 1.5 U/kg body weight in 100 μl of diluent. Blood was obtained from clipped tip of the tail at time 0 and every 10 minutes up to 90 min. Blood glucose was measured using a Hypoguard Advance Micro-Draw meter.

[2] = Fibrillation assay (thioflavin T fluorescence); assay type: physicochemical; details: zinc free, 60 μM, pH 7.4, 37° C., tilting table
Procedure: Samples (in triplicate) were placed in sealed glass vials and placed on an automated tilting table at 37° C. At successive times aliquots were withdrawn and analyzed by a thioflavin T (ThT) fluorescence spectroscopy assay to determine the onset of fibrillation as follows.
Thioflavin T (ThT) was made 1 mM in double-distilled water and stored at 4° C. in the dark. To monitor fibrillation, 10-μl aliquots of samples were obtained at indicated time points and were mixed with 3 ml of ThT assay buffer (5 μM ThT in 50 mM Tris-HCl (pH 7.5) and 100 mM NaCl). Fluorescence measurements were performed using an Aviv spectrofluorometer in 1-cm quartz cuvettes. Emission spectra were collected from 470 to 500 nm following excitation at 450 nm; the integration time was 1 s. ThT in buffer without protein was used as baseline. The fibrillation lag time is defined as the time required to observe twofold enhancement in ThT emission. The threshold of twofold-enhanced ThT fluorescence is followed a rapid increase in turbidity associated with elongation of mature fibrils and a further increase in ThT fluorescence.

[3] = Thermodynamic stability by guanidine denaturation; assay type: physicochemical; details: 37° C. and pH 7.4
Procedure: Circular Dichroism—Samples were dissolved in either 10 mM phosphate and 100 mM KCl (pH 7.4) or 0.01 N HCl (pH 2.0) at a protein concentration of 25 μM. To remove particulate matter and protein aggregates, samples were filtered ([…]; Satorius, Goetlingen, Germany). Spectra, acquired with an Aviv spectropolarimeter (Aviv Biomedical, Inc., Lakewood, N.J.), were normalized. […]

[4] = molecular target: T1, Insulin-like Growth Factor receptor (IGFR) (Homo sapiens, UniProt P08069); test: IGFR binding assay (microtiter plate antibody assay); details: relative to IGF-1
T1 construct: expressed in transfected cells; host or cells: PEAK rapid cells, transient transfection, Triton X-100 lysate
Procedure: Receptor-Binding Assays. […] Subsequent to incubation, mixtures are diluted with 1 ml of ice-cold buffer and centrifuged (10,000 g) for 5 min at 4° C. The supernatant will then be removed by aspiration, and the membrane pellet counted for radioactivity. […] Binding data were analyzed by a two-site sequential model. A corresponding microtiter plate antibody assay using the IGF Type I receptor was employed to assess cross-binding to this homologous receptor.
DNA for transfection was prepared according to the method of Mynarcik et al. (J. Biol. Chem., 1997, 272, pp 18650-18655). The receptor cDNAs were expressed transiently in PEAK rapid cells using polyethyleneimine. Cells were harvested by lysis in 0.15M NaCl and 0.1M Tris (pH 8) containing 1% (v/v) Triton X-100 and protease inhibitor cocktail three days post-transfection. Lysates were stored at −80° C. until assay. Receptor-binding assays were performed as described by Mynarcik. Microtiter strip plates (Nunc Maxisorb) were incubated overnight at 4° C. with anti-FLAG IgG ([…] of a […] solution in PBS). […] Binding data were analyzed by a two-site sequential model with homologous or heterologous labeled and unlabeled ligands to obtain dissociation constants as described by Whittaker et al. (J. Biol. Chem., 2001, 276, pp 43980-43986).

T1 sequence (P08069 31-736 limits assumed): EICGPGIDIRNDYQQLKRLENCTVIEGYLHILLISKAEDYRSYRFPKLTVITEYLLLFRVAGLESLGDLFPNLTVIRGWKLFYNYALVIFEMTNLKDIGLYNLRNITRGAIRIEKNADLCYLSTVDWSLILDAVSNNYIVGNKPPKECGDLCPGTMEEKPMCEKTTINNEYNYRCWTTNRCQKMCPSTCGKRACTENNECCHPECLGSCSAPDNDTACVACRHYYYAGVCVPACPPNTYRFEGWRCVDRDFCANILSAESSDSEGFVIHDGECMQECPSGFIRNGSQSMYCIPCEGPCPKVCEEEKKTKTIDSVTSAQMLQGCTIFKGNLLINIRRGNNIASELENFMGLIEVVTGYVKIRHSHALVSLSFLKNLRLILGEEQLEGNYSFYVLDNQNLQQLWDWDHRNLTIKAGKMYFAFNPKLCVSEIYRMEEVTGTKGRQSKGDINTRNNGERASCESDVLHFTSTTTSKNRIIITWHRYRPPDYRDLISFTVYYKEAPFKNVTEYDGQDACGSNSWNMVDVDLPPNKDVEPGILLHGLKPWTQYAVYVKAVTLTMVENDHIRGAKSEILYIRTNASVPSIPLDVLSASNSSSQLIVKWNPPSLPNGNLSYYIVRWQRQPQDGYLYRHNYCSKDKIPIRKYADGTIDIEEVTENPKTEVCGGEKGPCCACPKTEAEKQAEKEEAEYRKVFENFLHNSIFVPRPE
T1 sequence (P08069 741-1367 partner limits assumed): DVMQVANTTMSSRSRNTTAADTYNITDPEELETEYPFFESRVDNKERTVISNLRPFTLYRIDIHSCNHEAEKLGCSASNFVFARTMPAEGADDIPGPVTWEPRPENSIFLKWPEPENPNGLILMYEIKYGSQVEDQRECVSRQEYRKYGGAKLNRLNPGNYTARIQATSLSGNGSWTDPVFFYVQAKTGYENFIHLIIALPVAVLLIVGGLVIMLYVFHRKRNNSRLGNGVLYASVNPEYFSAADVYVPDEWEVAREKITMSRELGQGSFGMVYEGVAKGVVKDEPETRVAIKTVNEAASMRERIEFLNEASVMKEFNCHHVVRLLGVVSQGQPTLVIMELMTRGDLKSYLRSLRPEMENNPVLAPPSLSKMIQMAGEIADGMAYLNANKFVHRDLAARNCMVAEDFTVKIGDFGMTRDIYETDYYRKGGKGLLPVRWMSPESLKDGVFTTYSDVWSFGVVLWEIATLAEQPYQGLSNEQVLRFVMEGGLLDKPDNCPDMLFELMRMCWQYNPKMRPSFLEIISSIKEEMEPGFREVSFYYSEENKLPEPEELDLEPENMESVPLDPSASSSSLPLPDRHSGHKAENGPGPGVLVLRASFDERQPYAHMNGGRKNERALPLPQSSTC

Row | Substance | mitogenicity ([1]; listed as 57 mer single-chain insulin analogue) | rate of decrease of blood glucose concentration (diabetic Lewis rats) | mitogenicity [1] | Lag time (days ± 10%) [2] | ΔGu [3] | IGFR Relative Affinity [4]
1 | 57mer single-chain analogue: 57-mer single-chain insulin, SEQ ID NO: 26; His^A8, Asp^B10, Asp^B28, Pro^B29 substitutions; six-residue linker GGGPRR between B30 and A1 | indistinguishable from human insulin; also recorded: significantly less mitogenic than IGF-I | 62.0±16.3 mg/dL per h |  |  |  | 
2 | Corresponding two-chain analogue: two-chain insulin analogue with His^A8, Asp^B10, Asp^B28, Pro^B29 substitutions; SEQ ID NOS: 28 and 29 |  | 53.2±11.7 mg/dL per h | intermediate between the single-chain insulin analogue | 70 ± 5 days | 3.6 kcal/mol | 
3 | IGF-I |  |  |  |  |  | 1
